US20260250318A1, “COMPOSITIONS AND METHODS FOR CROSSING THE BLOOD BRAIN BARRIER” (VOYAGER THERAPEUTICS, INC., priority 2022, published 2026)

What was measured:
Conditions in all cases: synthetic library passage 3, intravenous, relative to wild-type AAV9
[1] = test system: brain, spinal cord, and DRG of the NHPs; assay: NGS fold enrichment of synthetic library (passage 3) in NHPs, first cross-species screen; assay type: in vivo, cynomolgus macaques (Macaca fascicularis)
Outline: (§1)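 Synthetic capsid library (passage 3) was given intravenously […] to NHPs aged 2-4 years and to BALB/c and C57Bl/6 mice (n=3 each, 6-8 weeks). After about 28 days in vivo, tissue RNA was RT-PCR amplified and NGS-sequenced; values are fold enrichment per variant relative to wild-type AAV9.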

brain [2] = assay: NGS fold enrichment of synthetic library (passage 3) in BALB/c mice, first cross-species screen; assay type: in vivo
Outline: as §1

brain [3] = assay: NGS fold enrichment of synthetic library (passage 3) in C57Bl/6 mice, first cross-species screen; assay type: in vivo
Outline: as §1

[4] = RNA from spinal cord of NHPs, NGS
[5] = RNA from brain of BALB/c mice, NGS
[6] = RNA from brain of C57Bl/6 mice, NGS

## GSGDRYQTLQNQQT
[1]; RNA NGS, brain of NHPs
  Fold enrichment over AAV9 in the brain of NHPs: 1.897 fold
[1]; RNA NGS, spinal cord of NHPs
  Fold enrichment over AAV9 in the spinal cord of NHPs: 1.075 fold
Brain [2]; RNA NGS, brain of BALB/c mice
  Fold enrichment over AAV9 in the brain of Mice (BALB/c): 0.318 fold
Brain [3]; RNA NGS, brain of C57Bl/6 mice
  Fold enrichment over AAV9 in the brain of Mice (C57Bl/6): 0.645 fold

## GSLPRGTSDQNQQT
[1]; RNA NGS, brain of NHPs
  Fold enrichment over AAV9 in the brain of NHPs: 2.362 fold
[1]; RNA NGS, spinal cord of NHPs
  Fold enrichment over AAV9 in the spinal cord of NHPs: 0.000 fold
Brain [2]; RNA NGS, brain of BALB/c mice
  Fold enrichment over AAV9 in the brain of Mice (BALB/c): 0.495 fold
Brain [3]; RNA NGS, brain of C57Bl/6 mice
  Fold enrichment over AAV9 in the brain of Mice (C57Bl/6): 0.453 fold

## GSGQFTNAGMNQQT
[1]; RNA NGS, brain of NHPs
  Fold enrichment over AAV9 in the brain of NHPs: 2.969 fold
[1]; RNA NGS, spinal cord of NHPs
  Fold enrichment over AAV9 in the spinal cord of NHPs: 0.936 fold
Brain [2]; RNA NGS, brain of BALB/c mice
  Fold enrichment over AAV9 in the brain of Mice (BALB/c): 0.418 fold
Brain [3]; RNA NGS, brain of C57Bl/6 mice
  Fold enrichment over AAV9 in the brain of Mice (C57Bl/6): 0.565 fold

## GSGQNQQSQYMPRT
[1]; RNA from brain of NHPs, NGS
  Fold enrichment over AAV9 in the brain of NHPs: 1.234 fold
[1]; [4]
  Fold enrichment over AAV9 in the spinal cord of NHPs: 0.401 fold
Brain [2]; [5]
  Fold enrichment over AAV9 in the brain of Mice (BALB/c): 0.520 fold
Brain [3]; [6]
  Fold enrichment over AAV9 in the brain of Mice (C57Bl/6): 0.549 fold

## GSGNPHVRNQNQQT
[1]; RNA NGS, brain of NHPs
  Fold enrichment over AAV9 in the brain of NHPs: 1.112 fold
[1]; RNA NGS, spinal cord of NHPs
  Fold enrichment over AAV9 in the spinal cord of NHPs: 0.873 fold
Brain [2]; RNA NGS, brain of BALB/c mice
  Fold enrichment over AAV9 in the brain of Mice (BALB/c): 0.755 fold
Brain [3]; RNA NGS, brain of C57Bl/6 mice
  Fold enrichment over AAV9 in the brain of Mice (C57Bl/6): 0.732 fold

## GDAGVRSSGQNQQT
[1]; RNA NGS, brain of NHPs
  Fold enrichment over AAV9 in the brain of NHPs: 2.068 fold
[1]; RNA NGS, spinal cord of NHPs
  Fold enrichment over AAV9 in the spinal cord of NHPs: 3.918 fold
Brain [2]; RNA NGS, brain of BALB/c mice
  Fold enrichment over AAV9 in the brain of Mice (BALB/c): 1.193 fold
Brain [3]; RNA NGS, brain of C57Bl/6 mice
  Fold enrichment over AAV9 in the brain of Mice (C57Bl/6): 1.033 fold

## GSGSSSMSFQNQQT
[1]; RNA from brain of NHPs, NGS
  Fold enrichment over AAV9 in the brain of NHPs: 1.279 fold
[1]; [4]
  Fold enrichment over AAV9 in the spinal cord of NHPs: 0.540 fold
Brain [2]; [5]
  Fold enrichment over AAV9 in the brain of Mice (BALB/c): 0.095 fold
Brain [3]; [6]
  Fold enrichment over AAV9 in the brain of Mice (C57Bl/6): 0.466 fold

## GSGQLVLTLQNQQT
[1]; RNA from brain of NHPs, NGS
  Fold enrichment over AAV9 in the brain of NHPs: 1.143 fold
[1]; [4]
  Fold enrichment over AAV9 in the spinal cord of NHPs: 0.000 fold
Brain [2]; [5]
  Fold enrichment over AAV9 in the brain of Mice (BALB/c): 0.336 fold
Brain [3]; [6]
  Fold enrichment over AAV9 in the brain of Mice (C57Bl/6): 0.336 fold

## GSGIGSHIPQNQQT
[1]; RNA from brain of NHPs, NGS
  Fold enrichment over AAV9 in the brain of NHPs: 1.319 fold
[1]; [4]
  Fold enrichment over AAV9 in the spinal cord of NHPs: 0.173 fold
Brain [2]; [5]
  Fold enrichment over AAV9 in the brain of Mice (BALB/c): 0.597 fold
Brain [3]; [6]
  Fold enrichment over AAV9 in the brain of Mice (C57Bl/6): 0.822 fold

## GSVSDVRAGQNQQT
[1]; RNA NGS, brain of NHPs
  Fold enrichment over AAV9 in the brain of NHPs: 2.661 fold
[1]; RNA NGS, spinal cord of NHPs
  Fold enrichment over AAV9 in the spinal cord of NHPs: 1.647 fold
Brain [2]; RNA NGS, brain of BALB/c mice
  Fold enrichment over AAV9 in the brain of Mice (BALB/c): 0.747 fold
Brain [3]; RNA NGS, brain of C57Bl/6 mice
  Fold enrichment over AAV9 in the brain of Mice (C57Bl/6): 0.267 fold

## GSGQNQQPSAFSKT
[1]; RNA from brain of NHPs, NGS
  Fold enrichment over AAV9 in the brain of NHPs: 1.220 fold
[1]; [4]
  Fold enrichment over AAV9 in the spinal cord of NHPs: 4.906 fold
Brain [2]; [5]
  Fold enrichment over AAV9 in the brain of Mice (BALB/c): 0.754 fold
Brain [3]; [6]
  Fold enrichment over AAV9 in the brain of Mice (C57Bl/6): 1.309 fold

## GSGQYRSSSDNQQT
[1]; RNA from brain of NHPs, NGS
  Fold enrichment over AAV9 in the brain of NHPs: 1.369 fold
[1]; [4]
  Fold enrichment over AAV9 in the spinal cord of NHPs: 6.209 fold
Brain [2]; [5]
  Fold enrichment over AAV9 in the brain of Mice (BALB/c): 0.409 fold
Brain [3]; [6]
  Fold enrichment over AAV9 in the brain of Mice (C57Bl/6): 0.681 fold

## GSGQNQQSMADHTT
[1]; RNA NGS, brain of NHPs
  Fold enrichment over AAV9 in the brain of NHPs: 1.494 fold
[1]; RNA NGS, spinal cord of NHPs
  Fold enrichment over AAV9 in the spinal cord of NHPs: 1.728 fold
Brain [2]; RNA NGS, brain of BALB/c mice
  Fold enrichment over AAV9 in the brain of Mice (BALB/c): 0.215 fold
Brain [3]; RNA NGS, brain of C57Bl/6 mice
  Fold enrichment over AAV9 in the brain of Mice (C57Bl/6): 0.428 fold

## GSGQNQHSLGNYQT
[1]; RNA NGS, brain of NHPs
  Fold enrichment over AAV9 in the brain of NHPs: 2.143 fold
[1]; RNA NGS, spinal cord of NHPs
  Fold enrichment over AAV9 in the spinal cord of NHPs: 1.896 fold
Brain [2]; RNA NGS, brain of BALB/c mice
  Fold enrichment over AAV9 in the brain of Mice (BALB/c): 0.606 fold
Brain [3]; RNA NGS, brain of C57Bl/6 mice
  Fold enrichment over AAV9 in the brain of Mice (C57Bl/6): 1.077 fold

## GSGQEHRSLANQQT
[1]; RNA NGS, brain of NHPs
  Fold enrichment over AAV9 in the brain of NHPs: 1.046 fold
[1]; RNA NGS, spinal cord of NHPs
  Fold enrichment over AAV9 in the spinal cord of NHPs: 0.000 fold
Brain [2]; RNA NGS, brain of BALB/c mice
  Fold enrichment over AAV9 in the brain of Mice (BALB/c): 0.344 fold
Brain [3]; RNA NGS, brain of C57Bl/6 mice
  Fold enrichment over AAV9 in the brain of Mice (C57Bl/6): 0.507 fold

## GNSQVKVSGQNQQT
[1]; RNA from brain of NHPs, NGS
  Fold enrichment over AAV9 in the brain of NHPs: 1.158 fold
[1]; [4]
  Fold enrichment over AAV9 in the spinal cord of NHPs: 4.930 fold
Brain [2]; [5]
  Fold enrichment over AAV9 in the brain of Mice (BALB/c): 0.728 fold
Brain [3]; [6]
  Fold enrichment over AAV9 in the brain of Mice (C57Bl/6): 1.422 fold

## GYTRLETSGQNQQT
[1]; RNA from brain of NHPs, NGS
  Fold enrichment over AAV9 in the brain of NHPs: 1.250 fold
[1]; [4]
  Fold enrichment over AAV9 in the spinal cord of NHPs: 1.323 fold
Brain [2]; [5]
  Fold enrichment over AAV9 in the brain of Mice (BALB/c): 0.297 fold
Brain [3]; [6]
  Fold enrichment over AAV9 in the brain of Mice (C57Bl/6): 0.841 fold
